Laboratory results as given in article PMC6234229, “The role of loops B and C in determining the potentiation of GABAA receptors by midazolam” (Pharmacology Research & Perspectives, 2018).

Experiments:
Type in all cases: cell-based
[1] = target: T1, α4(I204S)β2γ2 GABAA receptor (Homo sapiens, UniProt P18507+P47870+P48169, I239S); assay: Midazolam potentiation of EC10 GABA currents, whole-cell patch clamp, HEK293T
T1 construct: expressed in transfected cells; host or cells: HEK293T
Source text: (§1) Human (Homo sapiens) GABAA subunits (α1‐6, β2, γ2s) were subcloned into pcDNA3.1+ vectors with a cytomegalovirus (CMV) promoter. The hβ2 and hα3 sequences were humanized rat (Rattus norvegicus) cDNA with amino acid substitutions made to match the human protein sequence. The α1‐3, α5, β2, and γ2s subunits were a generous gift from Neil L. Harrison (Columbia University Medical Center, NY). The α4 subunit was obtained from GenScript (Piscataway, NJ), and the α6 subunit was a generous gift from Robert L. McDonald (Vanderbilt University, TN). All point mutations (listed in Figure 1C) were introduced using the QuikChange Lightening site‐directed mutagenesis kit (Agilent Technologies, Santa Clara, CA) according to the manufacturer's instructions and were confirmed by sequencing (Eurofins MWG Operon, Louisville, KY).
(§2) Human embryonic kidney cells containing the SV40 T‐antigen (HEK293T) were acquired from American Type Culture Collection (ATCC®, Manassas, VA), catalogue number, CRL3216. HEK293T cells were maintained at 37°C and 5% CO2 in Eagle Minimum Essential Medium (MEM) supplemented with 5% fetal bovine serum (Atlanta Biologicals Inc., Flowery Branch, GA), 40 μM L‐glutamine, 100 U/mL penicillin and 0.1 mM streptomycin. Cells were passaged regularly when they reached 70% confluency using trypsin. Cells were not passaged more than 22 times. New cells were revived from frozen stocks at passage 2‐4. Cells used for in vitro electrophysiology experiments were grown on poly‐D‐lysine‐coated glass coverslips (No.2, VWR, Radnor, PA) and transfected with X‐tremeGENE (Roche Diagnostics, Indianapolis, IN) with the desired receptor subunit cDNAs at a 1:1:1 ratio to express αxβ2γ2s receptors (2 μg total cDNA) and with 0.5 μg green fluorescent protein (GFP) as an expression marker. The γ2s incorporation into receptors was tested with zinc inhibition assays regularly.24 Patch clamp experiments were performed on cells at 24‐72 hours post‐transfection. All experiments were performed at 22°C. Experiments consisted of at least five cells recorded per day from at least two transfections across 3‐4 days to control for cell health and transfection efficiency. At least three cells expressing wild‐type receptors were recorded on days that mutant receptors were tested to provide a time‐matched expression control. All reagents were purchased from Sigma‐Aldrich (St. Louis, MO) unless otherwise stated.
(§3) Extracellular solution contained 161 mM NaCl, 3 mM KCl, 1 mM MgCl2, 1.5 mM CaCl2, 10 mM HEPES, and 6 mM D‐glucose, adjusted to pH 7.4 with NaOH (320‐330 mOsm). […] The perfusion system was controlled by protocols written in pClamp 9 (Molecular Devices, LLC., Sunnyvale, CA). Whole‐cell currents were recorded at ‐60 mV, filtered at 100 Hz and sampled at 200 Hz with a MultiClamp 700B amplifier (Molecular Devices, LLC) and DigiData 1322A (Molecular Devices, LLC) digitizer. […] Cells were recorded with the midazolam protocol no more than two times to avoid desensitization and incomplete washout or irreversible modulation.
(§4) Recordings were analyzed using MATLAB (Math Works, Inc., Natick, MA). […] The maximum peak current, EC50 and Hill coefficient were estimated for assays from each cell. When Hill parameters are estimated from whole‐cell recordings, the changes in the parameters across receptor conditions can be ascribed to the following changes in receptor physiology. Changes in maximum current can be due to changes in the single‐channel conductance or the rate of desensitization. Changes in cell surface receptor expression can cause minor changes in maximum current, but are unlikely to occur in the time course of our experimental protocol. […] More often minor changes in the Hill coefficient are attributed to the altered homogeneity in the receptor population expressed by the HEK293T cell. For example, a shallower Hill coefficient could be caused by a shift in the population of receptors from mostly αβγ receptors to a combination of both αβ and αβγ receptors.

[2] = target: T2, α4(P161T)β2γ2 GABAA receptor (Homo sapiens, UniProt P18507+P47870+P48169, P196T); assay: GABA concentration-response assay, whole-cell patch clamp, HEK293T; conditions: GABA Hill fit
T2 construct: expressed in transfected cells; host or cells: HEK293T
Source text: as §1, §2, §3, §4

[3] = target: T3, α1β2γ2 GABAA receptor (Homo sapiens, UniProt P14867+P18507+P47870); assay: as above; conditions: GABA Hill fit
T3 construct: expressed in transfected cells; host or cells: HEK293T
Source text: as §1, §2, §3, §4

[4] = target: T4, α2(H101R)β2γ2 GABAA receptor (Homo sapiens, UniProt P18507+P47869+P47870, H129R); assay: as above; conditions: GABA Hill fit
T4 construct: expressed in transfected cells; host or cells: HEK293T
Source text: as §1, §2, §3, §4

[5] = target: T5, α6(N204I)β2γ2 GABAA receptor (Homo sapiens, UniProt P18507+P47870+Q16445, N223I); assay: as above; conditions: GABA Hill fit
T5 construct: expressed in transfected cells; host or cells: HEK293T
Source text: as §1, §2, §3, §4

[6] = target: T6, α5(P166T)β2γ2 GABAA receptor (Homo sapiens, UniProt P18507+P31644+P47870, P197T); assay: as above; conditions: GABA Hill fit
T6 construct: expressed in transfected cells; host or cells: HEK293T
Source text: as §1, §2, §3, §4

[7] = target: T7, α4β2γ2 GABAA receptor (Homo sapiens, UniProt P18507+P47870+P48169); assay: as above; conditions: GABA Hill fit
T7 construct: expressed in transfected cells; host or cells: HEK293T
Source text: as §1, §2, §3, §4

[8] = target: T8, α5(S209I)β2γ2 GABAA receptor (Homo sapiens, UniProt P18507+P31644+P47870, S240I); assay: as above; conditions: GABA Hill fit
T8 construct: expressed in transfected cells; host or cells: HEK293T
Source text: as §1, §2, §3, §4

[9] = target: T9, α3(H126R)β2γ2 GABAA receptor (Homo sapiens, UniProt P18507+P34903+P47870, H154R); assay: as above; conditions: GABA Hill fit
T9 construct: expressed in transfected cells; host or cells: HEK293T
Source text: as §1, §2, §3, §4

[10] = target: T10, α1(T163P)β2γ2 GABAA receptor (Homo sapiens, UniProt P14867+P18507+P47870, T190P); assay: as above; conditions: GABA Hill fit
T10 construct: expressed in transfected cells; host or cells: HEK293T
Source text: as §1, §2, §3, §4

[11] = target: T11, α3(T187P)β2γ2 GABAA receptor (Homo sapiens, UniProt P18507+P34903+P47870, T215P); assay: as above; conditions: GABA Hill fit
T11 construct: expressed in transfected cells; host or cells: HEK293T
Source text: as §1, §2, §3, §4

[12] = target: T12, α2(S205I)β2γ2 GABAA receptor (Homo sapiens, UniProt P18507+P47869+P47870, S233I); assay: as above; conditions: GABA Hill fit
T12 construct: expressed in transfected cells; host or cells: HEK293T
Source text: as §1, §2, §3, §4

T1 sequence (P48169 36-554 I239S): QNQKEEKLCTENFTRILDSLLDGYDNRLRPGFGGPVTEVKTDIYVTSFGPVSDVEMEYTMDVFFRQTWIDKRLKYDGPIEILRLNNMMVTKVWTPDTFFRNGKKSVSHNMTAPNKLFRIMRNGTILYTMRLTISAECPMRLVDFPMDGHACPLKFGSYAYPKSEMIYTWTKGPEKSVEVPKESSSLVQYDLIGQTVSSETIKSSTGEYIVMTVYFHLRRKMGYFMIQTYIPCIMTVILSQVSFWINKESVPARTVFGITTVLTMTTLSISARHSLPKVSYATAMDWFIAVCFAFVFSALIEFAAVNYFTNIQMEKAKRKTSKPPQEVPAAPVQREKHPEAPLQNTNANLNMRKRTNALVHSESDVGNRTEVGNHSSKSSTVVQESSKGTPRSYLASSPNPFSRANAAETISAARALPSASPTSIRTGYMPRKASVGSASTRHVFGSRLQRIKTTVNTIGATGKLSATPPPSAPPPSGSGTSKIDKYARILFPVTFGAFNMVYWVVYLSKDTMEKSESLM
T1 sequence (P47870 26-474 isoform P47870-1 limits assumed, stated change not applied): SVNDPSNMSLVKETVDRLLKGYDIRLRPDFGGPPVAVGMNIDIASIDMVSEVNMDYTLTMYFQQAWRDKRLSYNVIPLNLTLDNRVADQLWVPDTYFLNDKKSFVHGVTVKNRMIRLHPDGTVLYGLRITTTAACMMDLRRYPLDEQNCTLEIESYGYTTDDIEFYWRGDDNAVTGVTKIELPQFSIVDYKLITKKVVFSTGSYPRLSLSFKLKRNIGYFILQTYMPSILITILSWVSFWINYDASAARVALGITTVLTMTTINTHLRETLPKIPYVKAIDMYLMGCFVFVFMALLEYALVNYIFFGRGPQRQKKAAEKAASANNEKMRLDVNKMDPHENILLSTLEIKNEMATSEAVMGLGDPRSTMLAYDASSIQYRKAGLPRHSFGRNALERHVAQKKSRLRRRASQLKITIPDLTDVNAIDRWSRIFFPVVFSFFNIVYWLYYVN
T1 sequence (P18507 40-467 isoform P18507-1 limits assumed, stated change not applied): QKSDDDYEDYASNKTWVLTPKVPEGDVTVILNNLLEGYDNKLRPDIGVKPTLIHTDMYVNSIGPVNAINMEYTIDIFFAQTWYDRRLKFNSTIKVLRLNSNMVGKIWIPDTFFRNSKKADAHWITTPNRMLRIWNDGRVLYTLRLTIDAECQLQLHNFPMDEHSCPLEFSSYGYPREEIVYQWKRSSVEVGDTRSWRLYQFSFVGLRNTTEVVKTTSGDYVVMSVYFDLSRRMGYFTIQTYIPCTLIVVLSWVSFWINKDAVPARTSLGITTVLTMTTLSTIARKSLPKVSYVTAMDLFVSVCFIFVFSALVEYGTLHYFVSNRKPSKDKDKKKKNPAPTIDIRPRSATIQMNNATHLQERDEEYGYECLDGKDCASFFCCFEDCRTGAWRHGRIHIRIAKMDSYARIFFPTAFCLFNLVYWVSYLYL
T3 sequence (P14867 28-456): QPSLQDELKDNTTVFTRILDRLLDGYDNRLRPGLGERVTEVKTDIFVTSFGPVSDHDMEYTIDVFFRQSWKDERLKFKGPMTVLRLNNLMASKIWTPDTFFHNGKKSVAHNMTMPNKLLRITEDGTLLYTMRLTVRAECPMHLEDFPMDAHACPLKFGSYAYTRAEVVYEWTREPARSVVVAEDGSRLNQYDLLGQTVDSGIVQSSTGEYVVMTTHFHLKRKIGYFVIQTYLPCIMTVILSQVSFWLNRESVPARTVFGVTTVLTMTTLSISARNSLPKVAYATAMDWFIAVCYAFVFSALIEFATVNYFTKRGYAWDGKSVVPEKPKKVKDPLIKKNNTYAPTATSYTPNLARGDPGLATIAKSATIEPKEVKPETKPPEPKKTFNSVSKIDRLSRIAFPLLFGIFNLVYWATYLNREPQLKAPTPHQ
T3 sequence (P47870 26-474 isoform P47870-1 limits assumed): as the sequence (P47870 26-474 isoform P47870-1 limits assumed, stated change not applied) above
T3 sequence (P18507 40-467 isoform P18507-1 limits assumed): as the sequence (P18507 40-467 isoform P18507-1 limits assumed, stated change not applied) above
T7 sequence (P48169 36-554): as the sequence (P48169 36-554 I239S) above, with S204I counted along it
T7 sequence (P47870 26-474 isoform P47870-1 limits assumed): as the sequence (P47870 26-474 isoform P47870-1 limits assumed, stated change not applied) above
T7 sequence (P18507 40-467 isoform P18507-1 limits assumed): as the sequence (P18507 40-467 isoform P18507-1 limits assumed, stated change not applied) above

SMILES: Cc1ncc2n1-c1ccc(Cl)cc1C(c1ccccc1F)=NC2 [midazolam]
- responsiveness to midazolam potentiation [1]: failed to convey any notable midazolam potentiation
- Midazolam potentiation (%) ([1]; 10 nM MDZ + EC10 GABA): 9.47 ± 1.93%
- Midazolam potentiation (%) ([1]; 50 nM MDZ + EC10 GABA): 13.23 ± 1.68%
- Midazolam potentiation (%) ([1]; 100 nM MDZ + EC10 GABA): 16.59 ± 1.59%
- Midazolam potentiation (%) ([1]; 500 nM MDZ + EC10 GABA): 20.16 ± 2.01%
- Midazolam potentiation (%) ([1]; 1000 nM MDZ + EC10 GABA): 23.95 ± 2.33%

SMILES: NCCCC(=O)O [GABA, γ‐aminobutyric acid]
- Max Current (pA) [2]: -4487 ± 397.2 pA
- Hill coefficient [3]: 1.400 ± 0.102
- Max Current (pA) [3]: -4218 ± 601.6 pA
- Hill coefficient [4]: 1.443 ± 0.092
- Max Current (pA) [4]: -3186 ± 390.8 pA
- Max Current (pA) [5]: -3549 ± 408.6 pA
- Hill coefficient [6]: 1.420 ± 0.064
- Max Current (pA) [6]: -4543 ± 553.0 pA
- Hill coefficient [7]: 1.113 ± 0.063
- Max Current (pA) [7]: -3039 ± 347.3 pA
- Hill coefficient [8]: 1.434 ± 0.059
- Max Current (pA) [8]: -6073 ± 742.0 pA
- Hill coefficient [9]: 1.519 ± 0.88
- Max Current (pA) [9]: -3597 ± 343.6 pA
- Hill coefficient [10]: 1.230 ± 0.049
- Max Current (pA) [10]: -2449 ± 376.1 pA
- Max Current (pA) [11]: -1993 ± 189.7 pA
- Hill coefficient [12]: 1.452 ± 0.151
- Max Current (pA) [12]: -7835 pA
